Measurements published in ChEMBL document CHEMBL5614413, “Design, synthesis and biological evaluation of amphiphilic benzopyran derivatives as potent antibacterial agents against multidrug-resistant bacteria” (Eur J Med Chem, 2024).
≈ marks a conversion by molar mass, not a printed value. Calls of active or inactive are those of the source. No cut-off for these calls is given here.

Key:
Enterococcus faecalis = assay: Antibacterial activity against vancomycin-susceptible Enterococcus faecalis ATCC 29212; type: functional
Staphylococcus aureus [1] = assay: (§1) Antibacterial activity against methicillin-resistant Staphylococcus aureus ATCC 43300 infected in sepsis mouse model assessed as reduction in pathological damages in liver at 5 mg/kg pre-infected with bacteria for 1 hrs followed by continuous compound administration at 12 hrs intervals for 2 days by H and E staining based analysis; type: functional, organism-based; details: time 2.0 day
Bacillus subtilis = assay: Antibacterial activity against penicillin-susceptible Bacillus subtilis ATCC 9372; type: functional
Staphylococcus aureus [2] = assay: (§2) Antibacterial activity against methicillin-resistant Staphylococcus aureus ATCC 43300 infected in sepsis mouse model assessed as decrease in IL-6 level in blood at 5 mg/kg pre-infected with bacteria for 1 hrs followed by continuous compound administration at 12 hrs intervals for 2 days; type: functional, organism-based; details: time 2.0 day
Staphylococcus aureus [3] = assay: as §2, with “reduction” for “decrease”, “bacterial load” for “IL-6 level”, “liver” for “blood”, “days (reference value: 7.16 log10CFU/g)” for “days”; type: functional; details: time 2 day
Staphylococcus aureus [4] = assay: Antibacterial activity against methicillin-resistant Staphylococcus aureus ATCC 43300 infected in sepsis mouse model assessed as decrease in TNF-alpha level in blood at 5 mg/kg pre-infected with bacteria for 1 hrs followed by continuous compound administration at 12 hrs intervals for 2 days; type: functional, organism-based; details: time 2.0 day
Klebsiella pneumoniae = assay: Antibacterial activity against Klebsiella pneumoniae ATCC 10031; type: functional
Acinetobacter baumannii = assay: Antibacterial activity against Acinetobacter baumannii ATCC 19606; type: functional
Pseudomonas aeruginosa = assay: Antibacterial activity against penicillin-susceptible Pseudomonas aeruginosa ATCC 27853; type: functional
Staphylococcus aureus [5] = assay: as §1, with “spleen” for “liver”; type: functional, organism-based; details: time 2.0 day
Staphylococcus aureus [6] = assay: as §2, with “reduction” for “decrease”, “number of surviving bacterial colonies” for “IL-6 level”, “kidney” for “blood”, “days relative to control” for “days”; type: functional; details: time 2 day
Staphylococcus aureus [7] = assay: as §2, with “reduction” for “decrease”, “number of surviving bacterial colonies” for “IL-6 level”, “liver” for “blood”, “days relative to control” for “days”; type: functional; details: time 2 day
Escherichia coli = assay: Antibacterial activity against penicillin-susceptible Escherichia coli ATCC 25922; type: functional
Staphylococcus aureus [8] = assay: as §2, with “reduction” for “decrease”, “number of surviving bacterial colonies” for “IL-6 level”, “spleen” for “blood”, “days relative to control” for “days”; type: functional; details: time 2 day
Staphylococcus aureus [9] = assay: as §1, with “kidney” for “liver”; type: functional, organism-based; details: time 2.0 day
Staphylococcus aureus [10] = assay: as §2, with “reduction” for “decrease”, “bacterial load” for “IL-6 level”, “kidney” for “blood”, “days (reference value: 6.75 log10CFU/g)” for “days”; type: functional; details: time 2 day
Staphylococcus aureus [11] = assay: as §2, with “reduction” for “decrease”, “bacterial load” for “IL-6 level”, “days (reference value: 3.69 log10CFU/ml)” for “days”; type: functional; details: time 2 day
Staphylococcus aureus [12] = assay: as §2, with “reduction” for “decrease”, “number of surviving bacterial colonies” for “IL-6 level”, “days relative to control” for “days”; type: functional; details: time 2 day
Staphylococcus aureus [13] = assay: as §2, with “reduction” for “decrease”, “bacterial load” for “IL-6 level”, “spleen” for “blood”, “days (reference value: 7.45 log10CFU/g)” for “days”; type: functional; details: time 2 day
[14] = Selectivity index, ratio of HC50 for hemolytic activity in sheep RBC to MIC for antibacterial activity against methicillin-resistant Staphylococcus aureus ATCC 43300; type: toxicity; details: sheep red blood cells (erythrocytes), read-out: Selectivity Index
Staphylococcus aureus [15] = assay: Antibacterial activity against penicillin-resistant Staphylococcus aureus ATCC 31007; type: functional
Staphylococcus aureus [16] = assay: Antibacterial activity against methicillin-resistant Staphylococcus aureus ATCC 43300; type: functional
[17] = Hemolytic activity in sheep RBC; type: toxicity, cell-based, Ovis aries, Erythrocyte; details: sheep red blood cells (erythrocytes)
Staphylococcus aureus [18] = assay: Antibacterial activity against erythromycin-susceptible Staphylococcus aureus ATCC 25923; type: functional
[19] = system: Staphylococcus epidermidis; assay: Antibacterial activity erythromycin-susceptible Staphylococcus epidermidis ATCC 12228; type: functional

With `CN[C@H](CC(C)C)C(=O)N[C@H]1C(=O)N[C@@H](CC(N)=O)C(=O)N[C@H]2C(=O)N[C@H]3C(=O)N[C@H](C(=O)N[C@H](C(=O)O)c4cc(O)cc(O)c4-c4cc3ccc4O)[C@H](O)c3ccc(c(Cl)c3)Oc3cc2cc(c3O[C@@H]2O[C@H](CO)[C@@H](O)[C@H](O)[C@H]2O[C@H]2C[C@](C)(N)[C@H](O)[C@H](C)O2)Oc2ccc(cc2Cl)[C@H]1O` [VANCOMYCIN] the MIC (Enterococcus faecalis) was 2 µg/mL (≈ 1.38 µM), the Activity (Staphylococcus aureus [1]) was “Active” and the MIC (Bacillus subtilis) was 0.5 µg/mL (≈ 0.345 µM). For the same compound, the Activity (Staphylococcus aureus [2]) was “Active”, the Activity (Staphylococcus aureus [3]) was 2.7 log10CFU/g and the Activity (Staphylococcus aureus [4]) was “Active”. For the same compound, the MIC (Klebsiella pneumoniae) was 128 µg/mL (≈ 88.3 µM), the MIC (Acinetobacter baumannii) was 16 µg/mL (≈ 11 µM) and the MIC (Pseudomonas aeruginosa) was over 128 µg/mL. For the same compound, the Activity (Staphylococcus aureus [5]) was “Active”, the Activity (Staphylococcus aureus [6]) was 99.8% and the Activity (Staphylococcus aureus [7]) was 99.8%. For the same compound, the MIC (Escherichia coli) was 128 µg/mL (≈ 88.3 µM), the Activity (Staphylococcus aureus [8]) was 99.6% and the Activity (Staphylococcus aureus [9]) was “Active”. It also gave an Activity (Staphylococcus aureus [10]) of 2.73 log10CFU/g, an Activity (Staphylococcus aureus [11]) of 1.5 log10CFU/ml and an Activity (Staphylococcus aureus [12]) of 96.5%. For the same compound, the Activity (Staphylococcus aureus [13]) was 2.33 log10CFU/g.
In the case of `CC(=O)c1ccc2c(c1OCCCN(CCCN(C)C)CCCN(C)C)C=CC(C)(CCC=C(C)C)O2` (stereo unspecified), the MIC (Enterococcus faecalis) is reported as 64 µg/mL (≈ 125 µM), the MIC (Bacillus subtilis) is reported as 32 µg/mL (≈ 62.3 µM) and the selectivity ratio [14] is reported as 5.1. It also gave an MIC (Staphylococcus aureus [15]) of 64 µg/mL (≈ 125 µM), an MIC (Klebsiella pneumoniae) of 16 µg/mL (≈ 31.1 µM) and an MIC (Staphylococcus aureus [16]) of 32 µg/mL (≈ 62.3 µM). For the same compound, the HC50 [17] was 325 µg/mL, the MIC (Acinetobacter baumannii) was 16 µg/mL (≈ 31.1 µM) and the MIC (Pseudomonas aeruginosa) was 64 µg/mL (≈ 125 µM). For the same compound, the MIC (Escherichia coli) was 16 µg/mL (≈ 31.1 µM), the MIC (Staphylococcus aureus [18]) was 64 µg/mL (≈ 125 µM) and the MIC [19] was 32 µg/mL (≈ 62.3 µM).
With `CC(=O)c1c(OCCCNCCN(C)C)c2c(c3c1OC(C)(CCC=C(C)C)C=C3)OC(C)(CCC=C(C)C)C=C2` (stereo unspecified) the MIC (Enterococcus faecalis) was 1 µg/mL (≈ 1.77 µM), the MIC (Bacillus subtilis) was 2 µg/mL (≈ 3.54 µM) and the selectivity ratio [14] was 22.6. It also gave an MIC (Staphylococcus aureus [15]) of 2 µg/mL (≈ 3.54 µM), an MIC (Klebsiella pneumoniae) of 4 µg/mL (≈ 7.08 µM) and an MIC (Staphylococcus aureus [16]) of 2 µg/mL (≈ 3.54 µM). For the same compound, the HC50 [17] was 45.2 µg/mL, the MIC (Acinetobacter baumannii) was 2 µg/mL (≈ 3.54 µM) and the MIC (Pseudomonas aeruginosa) was 32 µg/mL (≈ 56.7 µM). The MIC (Escherichia coli) was 2 µg/mL (≈ 3.54 µM), the MIC (Staphylococcus aureus [18]) was 1 µg/mL (≈ 1.77 µM) and the MIC [19] was 0.5 µg/mL (≈ 0.885 µM).
For `CC(=O)c1c(OCCCN2CCSCC2)c2c(c3c1OC(C)(CCC=C(C)C)C=C3)OC(C)(CCC=C(C)C)C=C2` (stereo unspecified), the MIC (Enterococcus faecalis) was over 128 µg/mL, the MIC (Bacillus subtilis) was over 128 µg/mL and the selectivity ratio [14] was under 6.6. For the same compound, the MIC (Staphylococcus aureus [15]) was over 128 µg/mL, the MIC (Klebsiella pneumoniae) was over 128 µg/mL and the MIC (Staphylococcus aureus [16]) was over 128 µg/mL. It also gave an HC50 [17] of 844 µg/mL, an MIC (Acinetobacter baumannii) of over 128 µg/mL and an MIC (Pseudomonas aeruginosa) of over 128 µg/mL. The MIC (Escherichia coli) was over 128 µg/mL, the MIC (Staphylococcus aureus [18]) was over 128 µg/mL and the MIC [19] was over 128 µg/mL.
In the case of `CCCCN(CCCC)CCCNCCCOc1ccc(/C=C/C(=O)c2ccc3c(c2OC)C=CC(C)(CCC=C(C)C)O3)cc1` (stereo unspecified), the MIC (Enterococcus faecalis) is reported as 2 µg/mL (≈ 3.17 µM), the MIC (Bacillus subtilis) is reported as 4 µg/mL (≈ 6.34 µM) and the selectivity ratio [14] is reported as 16.7. For the same compound, the MIC (Staphylococcus aureus [15]) was 4 µg/mL (≈ 6.34 µM), the MIC (Klebsiella pneumoniae) was 16 µg/mL (≈ 25.4 µM) and the MIC (Staphylococcus aureus [16]) was 4 µg/mL (≈ 6.34 µM). It also gave an HC50 [17] of 66.9 µg/mL, an MIC (Acinetobacter baumannii) of 8 µg/mL (≈ 12.7 µM) and an MIC (Pseudomonas aeruginosa) of 128 µg/mL (≈ 203 µM). For the same compound, the MIC (Escherichia coli) was 4 µg/mL (≈ 6.34 µM), the MIC (Staphylococcus aureus [18]) was 8 µg/mL (≈ 12.7 µM) and the MIC [19] was 1 µg/mL (≈ 1.59 µM).
`CC(=O)c1ccc2c(c1OCCCN1CCSCC1)C=CC(C)(CCC=C(C)C)O2` (stereo unspecified) gave an MIC (Enterococcus faecalis) of over 128 µg/mL, an MIC (Bacillus subtilis) of over 128 µg/mL and a selectivity ratio [14] of under 10. For the same compound, the MIC (Staphylococcus aureus [15]) was over 128 µg/mL, the MIC (Klebsiella pneumoniae) was over 128 µg/mL and the MIC (Staphylococcus aureus [16]) was over 128 µg/mL. It also gave an HC50 [17] of over 1280 µg/mL, an MIC (Acinetobacter baumannii) of 128 µg/mL (≈ 298 µM) and an MIC (Pseudomonas aeruginosa) of over 128 µg/mL. For the same compound, the MIC (Escherichia coli) was over 128 µg/mL, the MIC (Staphylococcus aureus [18]) was over 128 µg/mL and the MIC [19] was over 128 µg/mL.
Work on `CC(=O)c1ccc2c(c1OCCCN(C)C)C=CC(C)(CCC=C(C)C)O2` (stereo unspecified) yielded an MIC (Enterococcus faecalis) of 16 µg/mL (≈ 43.1 µM), an MIC (Bacillus subtilis) of 16 µg/mL (≈ 43.1 µM) and a selectivity ratio [14] of 11.9. It also gave an MIC (Staphylococcus aureus [15]) of 16 µg/mL (≈ 43.1 µM), an MIC (Klebsiella pneumoniae) of 8 µg/mL (≈ 21.5 µM) and an MIC (Staphylococcus aureus [16]) of 16 µg/mL (≈ 43.1 µM). It also gave an HC50 [17] of 194 µg/mL, an MIC (Acinetobacter baumannii) of 16 µg/mL (≈ 43.1 µM) and an MIC (Pseudomonas aeruginosa) of 64 µg/mL (≈ 172 µM). For the same compound, the MIC (Escherichia coli) was 32 µg/mL (≈ 86.1 µM), the MIC (Staphylococcus aureus [18]) was 16 µg/mL (≈ 43.1 µM) and the MIC [19] was 8 µg/mL (≈ 21.5 µM).
